Experimental data as given in patent publication US20210007356A1, “IMIDE DERIVATIVE AND FUNGICIDE CONTAINING SAID DERIVATIVE AS ACTIVE INGREDIENT” (HOKKO CHEMICAL INDUSTRY CO., LTD., priority 2018, published 2021).
Where two headings read alike, the source gives them in different places.

Key:
[1] = tested on: barley powdery mildew fungus (Erysiphe graminis); experiment: Test Example 2: control effect against barley powdery mildew by foliage application; format: in vivo; conditions: wettable powder diluted to 100 ppm, 10 mL per pot foliage spray on barley; inoculated day after; 7 days after inoculation
[2] = tested on: rice blast fungus (Pyricularia grisea); format: in vivo; conditions: flowable diluted to 100 ppm, 10 mL per pot foliage spray on paddy rice; inoculated day after; 7 days after inoculation
[3] = tested on: rice blast fungus (Pyricularia grisea); format: in vivo; conditions: flowable 5,000 ppm, 50 mL irrigation of nursery box, paddy rice; inoculated after 3 weeks; 7 days after inoculation
[4] = tested on: rice blast fungus (Pyricularia grisea); format: in vivo; conditions: 5 g of granule on nursery box, paddy rice; inoculated after 3 weeks; 7 days after inoculation
[5] = tested on: rice blast fungus (Pyricularia grisea); format: in vivo; conditions: flowable 1,000 ppm, 1 mL dripped in paddy water, inoculated after 1 week, 7 days after inoculation
[6] = tested on: rice sheath blight fungus (Thanatephorus cucumeris); experiment: Test Example 8: control effect against rice sheath blight by box treatment (granule); conditions: 5 g of granule on nursery box, paddy rice; inoculated after 3 weeks; 7 days after inoculation
[7] = tested on: rice sheath blight fungus (Thanatephorus cucumeris); experiment: Test Example 6: control effect against rice sheath blight by box treatment (flowable formulation); conditions: flowable 5,000 ppm, 50 mL irrigation of nursery box, paddy rice; inoculated after 3 weeks; 7 days after inoculation
Description: Control value (%)=[1−(lesion height in sprayed plot/lesion height in unsprayed plot)]×100 (d)
By irrigation, 50 mL of a diluted solution (5,000 ppm) of a flowable prepared according to Formulation Example-3 was applied to a 2.5-leaf-stage paddy rice (variety: Asahi) seedling raised using a nursery box ( 1/10 the area of standard nursery box in size: 12 cm×15 cm×height 4 cm) within a greenhouse. The formulation-treated paddy rice seedling was immediately transplanted at 5 seedlings/pot into a pot ( 1/10000 are in size) filled with paddy soil (flooded). After growing for 3 weeks within a greenhouse, a culture of rice sheath blight fungus (Thanatephorus cucumeris) grown in advance on a rice straw medium was inoculated into the root of the formulation-treated paddy rice, and disease development was promoted in an artificial weather chamber at 26° C. (relative humidity=100%). Seven days after the inoculation, the rice sheath blight lesion height (height from the root) was examined, and the control value (%) was calculated according to formula (d). […] This test was performed with three replications, each consisting of one plot and one pot, per one formulation plot, and its average evaluation value of control effect was determined.

[8] = tested on: rice sheath blight fungus (Thanatephorus cucumeris); experiment: Test Example 10: control effect against rice sheath blight by water surface application (flowable formulation); conditions: flowable 1,000 ppm, 1 mL dripped in paddy water, inoculated after 1 week, 7 days after inoculation

| SMILES | evaluation value of control effect (from control value, lesion area percentage) [1] | evaluation value of control effect (from control value, number of lesions) [2] | evaluation value of control effect (from control value, number of lesions) [3] | evaluation value of control effect (from control value, number of lesions) [4] | evaluation value of control effect (from control value, number of lesions) [5] | evaluation value of control effect (from control value, lesion height) [6] | evaluation value of control effect (from control value, lesion height) [7] | evaluation value of control effect (from control value, lesion height) [8] |
| --- | --- | --- | --- | --- | --- | --- | --- | --- |
| Cc1nn(C)c(F)c1C(=O)N(C(=O)c1scnc1C(F)(F)F)c1ccccc1C(C)CC(C)C (stereo not shown) [1-336] | 4 | 4 |  |  |  |  |  |  |
| Cn1cc(C(=O)N(C(=O)c2scnc2C(F)(F)F)c2ccccc2-c2cc(F)c(F)c(F)c2)c(C(F)F)n1 [1-371] |  | 4 |  |  |  |  |  |  |
| Cc1nc(C(F)F)c(C(=O)N(C(=O)c2c(C(F)F)nn(C)c2Cl)c2ccccc2C(C)CC(C)C)s1 (stereo not shown) [7-272] | 4 | 4 |  |  |  |  |  |  |
| Cc1nnsc1C(=O)N(C(=O)c1cccnc1C(F)F)c1ccccc1C(C)CC(C)C (stereo not shown) [13-10] | 5 |  | 5 | 5 | 5 | 5 | 5 | 5 |
| CC(C)CC(C)c1ccccc1N(C(=O)c1cccnc1C(F)F)C(=O)c1cccc2nnsc12 (stereo not shown) [13-16] | 4 |  | 5 | 5 | 5 | 5 | 5 | 5 |
| CC(C)CC(C)c1ccccc1N(C(=O)c1cccnc1C(F)F)C(=O)c1onc(Cl)c1Cl (stereo not shown) [13-49] | 5 |  | 5 | 5 | 5 | 5 | 5 | 5 |
| CC(C)CC(C)c1ccccc1N(C(=O)c1cccnc1Cl)C(=O)c1snc(Cl)c1Cl (stereo not shown) [13-53] | 4 |  | 5 | 5 | 5 | 5 | 5 | 5 |
| CC(C)CC(C)c1sccc1N(C(=O)c1cccnc1C(F)F)C(=O)c1snc(Cl)c1Cl (stereo not shown) [18-2] | 5 |  | 5 | 5 | 5 | 5 | 5 | 5 |
| Cc1nnsc1C(=O)N(C(=O)c1cccnc1C(F)F)c1ccsc1C(C)CC(C)C (stereo not shown) [18-8] | 5 |  | 5 | 5 | 5 | 5 | 5 | 5 |
| CC1OC(C)(C)c2cccc(N(C(=O)c3cn(C)nc3C(F)F)C(=O)c3snc(Cl)c3Cl)c21 (stereo not shown) [25-10] | 4 |  | 5 | 5 | 5 | 5 | 5 | 5 |
| CC1OC(C)(C)c2cccc(N(C(=O)c3cn(C)nc3C(F)F)C(=O)c3cccc4nnsc34)c21 (stereo not shown) [25-74] | 4 |  | 5 | 5 | 5 | 5 | 5 | 5 |
| CC1OC(C)(C)c2cccc(N(C(=O)c3cn(C)nc3C(F)F)C(=O)c3onc(Cl)c3Cl)c21 (stereo not shown) [25-114] | 4 |  | 5 | 5 | 5 | 5 | 5 | 5 |
| Cc1nn(C)c(Cl)c1C(=O)N(C(=O)c1scnc1C(F)F)c1cccc2c1C(C)OC2(C)C (stereo not shown) [25-119] |  | 4 |  |  |  |  |  |  |
| Cc1nn(C)c(Cl)c1C(=O)N(C(=O)c1scnc1C(F)(F)F)c1cccc2c1C(C)OC2(C)C (stereo not shown) [25-120] |  | 4 |  |  |  |  |  |  |
| Cc1nc(C(F)(F)F)c(C(=O)N(C(=O)c2c(C)nn(C)c2Cl)c2cccc3c2C(C)OC3(C)C)s1 (stereo not shown) [25-122] |  | 4 |  |  |  |  |  |  |
| Cc1nc(C(F)F)c(C(=O)N(C(=O)c2snc(Cl)c2Cl)c2cccc3c2C(C)OC3(C)C)s1 (stereo not shown) [26-14] | 4 |  | 5 | 5 | 5 | 5 | 5 | 5 |
| Cc1nc(C(F)F)c(C(=O)N(C(=O)c2snnc2C(F)F)c2cccc3c2C(C)CC3(C)C)s1 (stereo not shown) [26-57] | 4 |  | 5 | 5 | 5 | 5 | 5 | 5 |
| Cc1nc(C(F)F)c(C(=O)N(C(=O)c2cccc3nnsc23)c2cccc3c2C(C)OC3(C)C)s1 (stereo not shown) [26-62] | 4 |  | 5 | 5 | 5 | 5 | 5 | 5 |
| Cc1nc(C(F)F)c(C(=O)N(C(=O)c2sc(C)nc2C(F)F)c2cccc3c2C(C)OC3(C)C)s1 (stereo not shown) [26-78] | 4 |  | 5 | 5 | 5 | 5 | 5 | 5 |
| Cc1nc(C(F)F)c(C(=O)N(C(=O)c2scnc2C(F)(F)F)c2cccc3c2C(C)OC3(C)C)s1 (stereo not shown) [26-82] |  | 4 |  |  |  | 5 | 5 | 5 |
| Cc1nc(C(F)F)c(C(=O)N(C(=O)c2cc(Cl)no2)c2cccc3c2C(C)OC3(C)C)s1 (stereo not shown) [26-91] | 4 |  | 5 | 5 | 5 | 5 | 5 | 5 |
| CC1OC(C)(C)c2cccc(N(C(=O)c3cccnc3C(F)F)C(=O)c3snc(Cl)c3Cl)c21 (stereo not shown) [27-4] | 4 |  | 5 | 5 | 5 | 5 | 5 | 5 |
| Cc1nnsc1C(=O)N(C(=O)c1cccnc1C(F)F)c1cccc2c1C(C)OC2(C)C (stereo not shown) [27-16] | 4 |  | 5 | 5 | 5 | 5 | 5 | 5 |
